According to the Kinase Knowledgebase extract (Sharma et al. 2016):
“And” between values parts separate entries of the source, which are not always exact repeats. Identical values can stand only once.

Assays:
EGFR (human) [1] = target: EGFR (human) (UniProt P00533); settings: a431
EGFR (human) [2] = target: EGFR (human) (UniProt P00533)

Sequence of EGFR (human) (P00533 whole entry, looked up): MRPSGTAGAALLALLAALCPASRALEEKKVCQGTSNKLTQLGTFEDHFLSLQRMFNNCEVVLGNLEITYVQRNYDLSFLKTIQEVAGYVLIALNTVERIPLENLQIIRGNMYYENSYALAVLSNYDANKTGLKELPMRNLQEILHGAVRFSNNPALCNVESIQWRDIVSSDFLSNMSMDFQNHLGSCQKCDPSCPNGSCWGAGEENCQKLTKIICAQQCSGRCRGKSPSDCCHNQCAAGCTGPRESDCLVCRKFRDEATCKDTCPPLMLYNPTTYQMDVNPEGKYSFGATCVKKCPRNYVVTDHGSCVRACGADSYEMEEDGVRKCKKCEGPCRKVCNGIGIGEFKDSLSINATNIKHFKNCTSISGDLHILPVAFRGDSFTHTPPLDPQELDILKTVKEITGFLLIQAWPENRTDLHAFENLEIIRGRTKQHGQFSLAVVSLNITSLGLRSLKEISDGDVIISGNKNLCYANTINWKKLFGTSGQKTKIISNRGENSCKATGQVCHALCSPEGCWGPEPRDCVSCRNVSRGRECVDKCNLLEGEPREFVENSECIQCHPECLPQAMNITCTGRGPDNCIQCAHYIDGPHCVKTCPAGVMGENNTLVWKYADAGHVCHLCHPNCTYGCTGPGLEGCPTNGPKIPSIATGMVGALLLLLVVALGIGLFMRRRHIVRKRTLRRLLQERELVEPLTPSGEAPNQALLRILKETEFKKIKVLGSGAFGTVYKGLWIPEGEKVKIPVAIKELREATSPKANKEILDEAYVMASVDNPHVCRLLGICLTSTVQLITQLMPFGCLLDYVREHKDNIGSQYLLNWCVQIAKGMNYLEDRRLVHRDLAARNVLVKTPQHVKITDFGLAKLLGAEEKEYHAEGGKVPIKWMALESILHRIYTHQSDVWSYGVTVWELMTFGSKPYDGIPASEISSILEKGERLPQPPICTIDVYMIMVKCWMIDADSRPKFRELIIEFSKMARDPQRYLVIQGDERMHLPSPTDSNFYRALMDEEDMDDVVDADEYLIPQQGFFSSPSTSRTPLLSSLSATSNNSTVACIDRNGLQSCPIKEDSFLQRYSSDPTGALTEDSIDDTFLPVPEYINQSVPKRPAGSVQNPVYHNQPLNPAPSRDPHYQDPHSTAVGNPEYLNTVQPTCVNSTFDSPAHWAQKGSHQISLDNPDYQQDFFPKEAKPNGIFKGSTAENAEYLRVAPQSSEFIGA

Row | SMILES | IC50 (EGFR (human) [1]) | IC50 (EGFR (human) [2])
1 | OC1CCN(CC(O)Cn2ccc(-c3ccc4ncnc(Nc5ccc6c(cnn6Cc6cccc(F)c6)c5)c4c3)c2)CC1 (centres undefined) | 1560 nM | 24 nM
2 | CCN(CC)CC(O)Cn1ccc(-c2ccc3ncnc(Nc4ccc(OCc5cccc(F)c5)c(Cl)c4)c3c2)c1 (centres undefined) | 350 nM | 23 nM
3 | COCCNC(=O)c1cn(-c2ccc3ncnc(Nc4ccc(OCc5ccccn5)c(Cl)c4)c3c2)cc1CCO | 200 nM | 78 nM
4 | O=C(Cn1ccc(-c2ccc3ncnc(Nc4ccc(OCc5cccc(F)c5)c(Cl)c4)c3c2)c1)NC1CCS(=O)(=O)CC1 | 3710 nM | 140 nM
5 | O=C(Cn1ccc(-c2ccc3ncnc(Nc4ccc(OCc5cccc(F)c5)c(Cl)c4)c3c2)c1)N1CCN(CCO)CC1 | 51 nM | 51 nM
6 | OC(CN1CCC(N2CCCC2)CC1)Cn1ccc(-c2ccc3ncnc(Nc4ccc(OCc5cccc(F)c5)c(Cl)c4)c3c2)c1 (centres undefined) | 362 nM | 39 nM
7 | OC(Cn1ccc(-c2ccc3ncnc(Nc4ccc5c(cnn5Cc5cccc(F)c5)c4)c3c2)c1)Cn1ccnn1 (centres undefined) | 400 nM | 58 nM
8 | O=C(C1CC1)N1CCN(CC(O)Cn2ccc(-c3ccc4ncnc(Nc5ccc(OCc6cccc(F)c6)c(Cl)c5)c4c3)c2)CC1 (centres undefined) | 1090 nM | 197 nM
9 | OC(CN1CCN(CC2CC2)CC1)Cn1ccc(-c2ccc3ncnc(Nc4ccc(OCc5cccc(F)c5)c(Cl)c4)c3c2)c1 (centres undefined) | 409 nM | 79 nM
10 | O[C@H](CN1CCC[C@@H]1CN1CCCC1)Cn1ccc(-c2ccc3ncnc(Nc4ccc(OCc5cccc(F)c5)c(Cl)c4)c3c2)c1 | 746 nM | 95 nM
11 | Fc1cccc(COc2ccc(Nc3ncnc4ccc(-c5ccn(CCN6CCN(CC7CC7)CC6)c5)cc34)cc2Cl)c1 | 1530 nM | 94 nM
12 | O=S1(=O)CCC(NCCn2ccc(-c3ccc4ncnc(Nc5ccc(OCc6cccc(F)c6)c(Cl)c5)c4c3)c2)CC1 | 1420 nM | 492 nM
13 | O[C@H](CN1CCOCC1)Cn1ccc(-c2ccc3ncnc(Nc4ccc(OCc5cccc(F)c5)c(Cl)c4)c3c2)c1 | 511 nM | 18 nM
14 | OCCc1cn(-c2ccc3ncnc(Nc4ccc(OCc5cccc(F)c5)c(Cl)c4)c3c2)cc1CN1CCCC1 | 390 nM | 7 nM
15 | CC(=O)NC1CCN(CC(O)Cn2ccc(-c3ccc4ncnc(Nc5ccc(OCc6cccc(F)c6)c(Cl)c5)c4c3)c2)CC1 (centres undefined) | 1280 nM | 1 nM
16 | O=C(Cn1ccc(-c2ccc3ncnc(Nc4ccc(OCc5cccc(F)c5)c(Cl)c4)c3c2)c1)N1CCOCC1 | 770 nM | 22 nM
17 | COCCNCc1cn(-c2ccc3ncnc(Nc4ccc(OCc5cccc(F)c5)c(Cl)c4)c3c2)cc1C(F)(F)F | 480 nM | 49 nM
18 | OC(CN1CCN(Cc2cccnc2)CC1)Cn1ccc(-c2ccc3ncnc(Nc4ccc5c(cnn5Cc5cccc(F)c5)c4)c3c2)c1 (centres undefined) | 1290 nM | 282 nM
19 | CN1CCN(Cc2cn(-c3ccc4ncnc(Nc5ccc(OCc6ccccn6)c(Cl)c5)c4c3)cc2CCO)CC1 | 210 nM | 26 nM
20 | Fc1cccc(COc2ccc(Nc3ncnc4ccc(-n5cccc5)cc34)cc2Cl)c1 | 360 nM | 3 nM
21 | Fc1cccc(Cn2ncc3cc(Nc4ncnc5ccc(-c6ccn(CC7CN(CCN8CCOCC8)CCO7)c6)cc45)ccc32)c1 (centres undefined) | 1300 nM | 276 nM
22 | Fc1cccc(COc2ccc(Nc3ncnc4ccc(-n5ccc(CNCCN6CCOCC6)c5)cc34)cc2Cl)c1 | 20 nM | 3 nM
23 | OC(CN1CCOCC1)Cn1ccc(-c2ccc3ncnc(Nc4ccc5c(cnn5Cc5cccc(F)c5)c4)c3c2)c1 (centres undefined) | 170 nM | 5 nM

Row | SMILES | IC50 (EGFR (human) [1]) | IC50 (EGFR (human) [2])
24 | Fc1cccc(COc2ccc(Nc3ncnc4ccc(-c5ccn(CCCN6CCOCC6)c5)cc34)cc2Cl)c1 | 1370 nM | 39 nM
25 | OC(CN1CCN(C2CC2)CC1)Cn1ccc(-c2ccc3ncnc(Nc4ccc(OCc5cccc(F)c5)c(Cl)c4)c3c2)c1 (centres undefined) | 521 nM | 117 nM
26 | COCCCN1CCOC(Cn2ccc(-c3ccc4ncnc(Nc5ccc6c(cnn6Cc6cccc(F)c6)c5)c4c3)c2)C1 (centres undefined) | 832 nM | 291 nM
27 | CS(=O)(=O)CCNCc1ccc(-c2ccc3ncnc(Nc4ccc(OCc5cccc(F)c5)c(Cl)c4)c3c2)[nH]1 | 120 nM | 2.6 nM
28 | O=C(c1cn(-c2ccc3ncnc(Nc4ccc(OCc5cccc(F)c5)c(Cl)c4)c3c2)cc1CCO)N1CCCCC1 | 50 nM | 3 nM
29 | Fc1cccc(COc2ccc(Nc3ncnc4ccc(-c5ccn(C[C@H]6CN7CCC[C@@H]7CO6)c5)cc34)cc2Cl)c1 | 1320 nM | 74 nM
30 | Fc1cccc(COc2ccc(Nc3ncnc4ccc(-c5ccc[nH]5)cc34)cc2Cl)c1 | 1080 nM | 4 nM
31 | Fc1cccc(COc2ccc(Nc3ncnc4ccc(-c5cc[nH]c5)cc34)cc2Cl)c1 | 50 nM | 4 nM
32 | O=C(Cn1ccc(-c2ccc3ncnc(Nc4ccc(OCc5cccc(F)c5)c(Cl)c4)c3c2)c1)NCC1(O)CCS(=O)(=O)CC1 | 1550 nM | 17 nM
33 | Fc1cccc(COc2ccc(Nc3ncnc4ccc(-c5ccn(C[C@H]6COCCN6)c5)cc34)cc2Cl)c1 | 562 nM | 79 nM
34 | CCN(CC)CCN1CCOC(Cn2ccc(-c3ccc4ncnc(Nc5ccc6c(cnn6Cc6cccc(F)c6)c5)c4c3)c2)C1 (centres undefined) | 501 nM | 248 nM
35 | Cn1cccc1-c1ccc2ncnc(Nc3ccc(OCc4cccc(F)c4)c(Cl)c3)c2c1 | 136 nM | 6 nM
36 | Fc1cccc(COc2ccc(Nc3ncnc4ccc(-c5ccn(CCc6ccncc6)c5)cc34)cc2Cl)c1 | 874 nM | 166 nM
37 | O[C@H](CN1CCOCC1)Cn1ccc(-c2ccc3ncnc(Nc4ccc5c(cnn5Cc5cccc(F)c5)c4)c3c2)c1 | 749 nM | 19 nM
38 | Cc1ccc(Oc2ccc(Nc3ncnc4ccc(-c5cc[nH]c5)cc34)cc2C)cn1 | 90 nM | 387 nM
39 | CN1CCN(C(=O)c2cn(-c3ccc4ncnc(Nc5ccc(OCc6cccc(F)c6)c(Cl)c5)c4c3)cc2CCO)CC1 | 1430 nM | 5 nM
40 | OCCc1cn(-c2ccc3ncnc(Nc4ccc(OCc5cccc(F)c5)c(Cl)c4)c3c2)cc1CN1CCCCC1 | 220 nM | 54 nM
41 | CNCCn1ccc(-c2ccc3ncnc(Nc4ccc(OCc5cccc(F)c5)c(Cl)c4)c3c2)c1 | 3420 nM | 73 nM
42 | CCN(CC)Cc1ccn(-c2ccc3ncnc(Nc4ccc(OCc5cccc(F)c5)c(Cl)c4)c3c2)c1 | 200 nM | 9 nM
43 | CCN(CC)C[C@@H](O)Cn1ccc(-c2ccc3ncnc(Nc4ccc5c(cnn5Cc5cccc(F)c5)c4)c3c2)c1 | 390 nM | 71 nM
44 | Fc1cccc(COc2ccc(Nc3ncnc4ccc(-n5cc(CNCCCN6CCOCC6)c(C(F)(F)F)c5)cc34)cc2Cl)c1 | 310 nM | 43 nM
45 | CN1CCN(CC(O)Cn2ccc(-c3ccc4ncnc(Nc5ccc(OCc6cccc(F)c6)c(Cl)c5)c4c3)c2)CC1 (centres undefined) | 84 nM | 36 nM
46 | Fc1cccc(COc2ccc(Nc3ncnc4ccc(-n5cc6c(c5)C(=NOCCN5CCOCC5)CC6)cc34)cc2Cl)c1 | 20 nM | 86 nM and 94 nM

Row | SMILES | IC50 (EGFR (human) [1]) | IC50 (EGFR (human) [2])
47 | Fc1cccc(Cn2ncc3cc(Nc4ncnc5ccc(-n6cccc6)cc45)ccc32)c1 | 80 nM | 6 nM
48 | CC(=O)NC1CCN(C(=O)Cn2ccc(-c3ccc4ncnc(Nc5ccc(OCc6cccc(F)c6)c(Cl)c5)c4c3)c2)CC1 | 952 nM | 102 nM
49 | OCCc1cn(-c2ccc3ncnc(Nc4ccc(OCc5cccc(F)c5)c(Cl)c4)c3c2)cc1CN1CCOCC1 | 210 nM | 4 nM
50 | OC(CN1CC=CC1)Cn1ccc(-c2ccc3ncnc(Nc4ccc(OCc5cccc(F)c5)c(Cl)c4)c3c2)c1 (centres undefined) | 431 nM | 22 nM
51 | CN1CCN(C(=O)c2cn(-c3ccc4ncnc(Nc5ccc(OCc6ccccn6)c(Cl)c5)c4c3)cc2CCO)CC1 | 130 nM | 60 nM
52 | CCN(CC)CCNCc1ccc(-c2ccc3ncnc(Nc4ccc(OCc5cccc(F)c5)c(Cl)c4)c3c2)[nH]1 | 1450 nM | 18 nM
53 | CS(=O)(=O)CCNCc1cc(-c2ccc3ncnc(Nc4ccc(OCc5cccc(F)c5)c(Cl)c4)c3c2)c[nH]1 | 250 nM | 11 nM
54 | CS(=O)(=O)CCOCC(O)Cn1ccc(-c2ccc3ncnc(Nc4ccc(OCc5cccc(F)c5)c(Cl)c4)c3c2)c1 (centres undefined) | 615 nM | 38 nM
55 | Fc1ccc(Nc2ncnc3ccc(-n4cccc4)cc23)cc1Cl | 70 nM | 61 nM
56 | Fc1cccc(COc2ccc(Nc3ncnc4ccc(-c5ccn(Cc6ccncc6)c5)cc34)cc2Cl)c1 | 49 nM | 80 nM
57 | O=C(Cn1ccc(-c2ccc3ncnc(Nc4ccc(OCc5cccc(F)c5)c(Cl)c4)c3c2)c1)N1CCC(N2CCCC2)CC1 | 240 nM | 106 nM
58 | O=C(Cn1ccc(-c2ccc3ncnc(Nc4ccc(OCc5cccc(F)c5)c(Cl)c4)c3c2)c1)N1CCN(CC2CC2)CC1 | 1980 nM | 443 nM
59 | Fc1cccc(COc2ccc(Nc3ncnc4ccc(-c5ccn(CCNC6CC6)c5)cc34)cc2Cl)c1 | 747 nM | 239 nM
60 | Fc1cccc(COc2ccc(Nc3ncnc4ccc(-c5ccn(CCCN6CCCCC6)c5)cc34)cc2Cl)c1 | 1980 nM | 9 nM
61 | O=C(c1cn(-c2ccc3ncnc(Nc4ccc(OCc5ccccn5)c(Cl)c4)c3c2)cc1CCO)N1CCOCC1 | 50 nM | 49 nM
62 | Fc1cccc(COc2ccc(Nc3ncnc4ccc(-n5cc(CNCCN6CCCC6)c(C(F)(F)F)c5)cc34)cc2Cl)c1 | 1040 nM | 55 nM
63 | CS(=O)(=O)CCNCc1cccn1-c1ccc2ncnc(Nc3ccc(OCc4cccc(F)c4)c(Cl)c3)c2c1 | 270 nM | 12 nM
64 | OCCN1CCOC(Cn2ccc(-c3ccc4ncnc(Nc5ccc6c(cnn6Cc6cccc(F)c6)c5)c4c3)c2)C1 (centres undefined) | 477 nM | 205 nM
65 | CCN(CC)CCn1ccc(-c2ccc3ncnc(Nc4ccc5c(cnn5Cc5cccc(F)c5)c4)c3c2)c1 | 1030 nM | 6 nM
66 | O=C(c1cn(-c2ccc3ncnc(Nc4ccc(OCc5cccc(F)c5)c(Cl)c4)c3c2)cc1CCO)N1CCCC1 | 90 nM | 15 nM
67 | O=C(NCC1CCS(=O)(=O)CC1)c1cc(-c2ccc3ncnc(Nc4ccc(OCc5cccc(F)c5)c(Cl)c4)c3c2)c[nH]1 | 706 nM | 116 nM
